# Experimental data published in paper PMC10317891, “Fibroblast activation protein targeted radiotherapy induces an immunogenic tumor microenvironment and enhances the efficacy of PD-1 immune checkpoint inhibition” (European Journal of Nuclear Medicine and Molecular Imaging, 2023).
# Numbered stars: 1 amine (or outer) side, 2 acyl side, 3 side chain; on linkers, the order of the positions; unused ones are H or OH. Bridge positions count the residues as written; N and C are the ends. Peptide text beside a SMILES is read from it. * marks the point of attachment. X1 = O=C(O)CN1CCN(CC(=O)O)CCN(CC(=O)N2CCN(Cc3cc(C[*:1])cc(C[*:2])c3)CC2)CCN(CC(=O)O)CC1; Hexanoyl = CCCCCC(=O)*
# Assay: Plasma stability
# Assay type: in vitro ADME
# Conditions: 10 µM, 37°C, UHPLC-QTOF MS with internal standard; for Plasma Stability (24 h) Human Plasma: human plasma with 3.8% sodium citrate; for Plasma Stability (24 h) Mouse Plasma: mouse plasma with 3.8% sodium citrate
# Experimental: FAP-2287 was incubated in 50 µL of plasma with 3.8% sodium citrate as anticoagulant at a concentration of 10 µM. After 1, 2, 4, and 24 hours incubation at 37°C a suitable internal standard was added. FAP-2287 with plasma proteins were precipitated using 250 µL of a precipitation agent consisting of 1% trifluoroacetic acid in acetonitrile. Precipitation was carried out at room temperature for 30 minutes. After centrifugation at 18,200 relative centrifugal force (rcf) for 5 minutes, 100 µL of the supernatant was mixed with 100 µL of 1% formic acid.
# A nonincubated plasma sample spiked with 10 µM sample concentration was prepared in the same way and was used as the reference. A pure plasma sample was incubated for 24 hours as a blank sample. A further pure plasma sample was incubated for 24 hours, processed as described above and spiked directly before analysis to determine the recovery. The samples were analyzed using an Agilent 1290 UHPLC system coupled to an Agilent 6530 QTOF mass spectrometer.
# For the quantitative data analysis, the Agilent Quantitative Analysis B.08.00 software (RRID:SCR_015040) was used. The ion currents of the triply charged proton adducts of the compounds were extracted with a mass window of ±50 parts per million and the chromatographic peak was integrated. The concentration of the compound was determined by external matrix calibration with internal standard using 6 calibration samples (1, 2.5, 5, 7.5, 10, and 12.5 µM). A quadratic regression was performed. Carryover was determined by analyzing the blank sample directly after the highest calibration sample and comparing the determined peak areas. Recovery was calculated as the ratio between the spiked concentration of the recovery sample and the concentration calculated from the peak area of this sample.
SMILES,Plasma Stability (24 h) Human Plasma,Plasma Stability (24 h) Mouse Plasma
"CCCCCC(=O)N[C@H]1CSCc2cc(cc(CN3CCN(C(=O)CN4CCN(CC(=O)O)CCN(CC(=O)O)CCN(CC(=O)O)CC4)CC3)c2)CSC[C@@H](C(=O)N[C@@H](CC(=O)O)C(N)=O)NC(=O)[C@H](Cc2ccccc2)NC(=O)[C@H](CCC(N)=O)NC(=O)[C@H]([C@@H](C)O)NC(=O)[C@@H]2CCCN2C(=O)[C@@H]2CCCN2C1=O [natLu-FAP-2287, metal not drawn] (Hexanoyl-CPPTQFCD-NH2; linker 1-7 via X1; N-terminus and C-terminus assumed)",> 80%,> 80%
CCCCCC(=O)N[C@H]1CSCc2cc(cc(CN3CCN(C(=O)CN4CCN(CC(=O)O)CCN(CC(=O)O)CCN(CC(=O)O)CC4)CC3)c2)CSC[C@@H](C(=O)N[C@@H](CC(=O)O)C(N)=O)NC(=O)[C@H](Cc2ccccc2)NC(=O)[C@H](CCC(N)=O)NC(=O)[C@H]([C@@H](C)O)NC(=O)[C@@H]2CCCN2C(=O)[C@@H]2CCCN2C1=O [FAP-2287] (Hexanoyl-CPPTQFCD-NH2; linker 1-7 via X1),> 80%,> 80%
